The values below come from patent US20180169108A1, “Drug Combinations For the Treatment of HIV” (The Johns Hopkins University, priority 2015, published 2018).

Data set [1] has as its system HIV-1 (latent, in resting CD4+ T cells from infected individuals). It is filed as cell-based. The following applies: for ρ, median fold change in supernatant HIV-1 mRNA versus DMSO control observed in the ex vivo assay: lower bound, as no virion production was detectable for DMSO; for virus release into supernatant (in words): 24 hours of treatment. The procedure:
Production and release of HIV-1 virions by LRA-treated rCD4s indicates complete reversal of latency in those cells. To assess whether combinations of LRAs induced rapid virus release, HIV-1 mRNA were measured in the culture supernatants of LRA-treated rCD4s from infected individuals on suppressive ART using an RT-qPCR assay previously shown to provide sensitive and accurate quantitation of HIV-1 virion production (45). […] The Bliss independence model was applied to quantitate interactions between LRAs.
(§1) The final DMSO percentage was 0.2% (v/v) for all single and combination treatments. Concentrations were chosen based on previous ex vivo studies with rCD4s from infected individuals as well as studies using in vitro latency models (13, 28, 29, 32-34) with the aim of selecting clinically relevant concentrations.
HIV-1 mRNA was extracted from 0.25 mL of supernatant from the LRA-treated cell cultures described above with 0.75 mL of TRIzol® LS Reagent (Invitrogen) according to the manufacturer's protocol. cDNA synthesis and real-time quantitative PCR was performed as described (32). […] The limit of detection for each qPCR was 10 copies per reaction, which scaled to a limit of detection of 150 copies per mL of culture supernatant. Primers and probes are listed below. Molecular standard curve was generated as described above.
(§2) The Bliss independence model, one method to predict the expected combined effects of multiple drugs assuming the drugs act through independent mechanisms, as a metric by which to evaluate the latency reversing activity of drug combinations was used. The Bliss independence model is defined by the equation:
(§3) If Dfaxy=0, then the drug combination follows the Bliss model for independent action. […] In this analysis, the fraction affected was calculated as follows for intracellular HIV-1 mRNA and for supernatant HIV-1 virion quantitation:
(§4) fax=(copies drug X−copies DMSO control)/(copies PMA/I−copies DMSO control)

Another data set has as its system HIV-1. To be noted: patients on ART; cited from earlier work.
The test system of data set [2] is HIV-1 (latent, in resting CD4+ T cells from infected individuals). To be noted: earlier study (32); cited from earlier work.
For data set [3] the test system is unchanged. The following applies: earlier study of the inventors (32); cited from earlier work.
The test system is the same in data set [4].
Text: as §1, §2, §3, §4

For data set [5] the following is noted: cancer patients; cited from earlier work.
For data set [6] the following is noted: continuous infusion for 14 or 21 days; cited from earlier work.

Take `C/C=C1\NC(=O)[C@H]2CSSCC/C=C/[C@H](CC(=O)N[C@H](C(C)C)C(=O)N2)OC(=O)[C@H](C(C)C)NC1=O` [romidepsin]: in data set [1], the “ρ, median fold change in supernatant HIV-1 mRNA versus DMSO control observed in the ex vivo assay” value (shortened to “ρ, median fold change”) is 15.
Consider `CC(=O)O[C@@]12C[C@@H](C)[C@@]3(O)[C@@H](C=C(CO)C[C@]4(O)C(=O)C(C)=C[C@@H]34)[C@@H]1C2(C)C` [prostratin], for which, in data set [1], the “virus release into supernatant (in words)” value is on record as “significant virus release” and the “ρ, median fold change” value stood at 209.
Consider `O=C(CCCCCCC(=O)Nc1ccccc1)NO` [vorinostat], for which, in the data set with HIV-1, the “increase in plasma HIV-1 RNA using quantitative clinical assays (in words)” value is given as “no increases in plasma HIV-1 RNA”. Besides, the “viral production ex vivo (in words)” value in data set [2] is listed as “fail to stimulate detectable viral production”. In addition, in data set [3], the “latency reversal in rCD4s from infected individuals (in words)” value is listed as “only minimally active”.
As to `CCC/C=C/C=C/C(=O)O[C@H]1/C(=C/C(=O)OC)C[C@H]2C[C@H]([C@@H](C)O)OC(=O)C[C@H](O)C[C@@H]3C[C@H](OC(C)=O)C(C)(C)[C@](O)(C[C@@H]4C/C(=C/C(=O)OC)C[C@H](/C=C/C(C)(C)[C@]1(O)O2)O4)O3` [bryostatin-1], the “induction of intracellular HIV-1 mRNA (significance, in words)” value in data set [4] (1 nM bryostatin-1) is “did not induce significant intracellular HIV-1 mRNA”. For the same molecule, the “mean increase in intracellular HIV-1 mRNA, fold induction relative to DMSO control” value in data set [4] (rCD4s from infected individuals on ART, 24 h, 10 nM bryostatin-1, 300 nM prostratin, 40 nM romidepsin, 50 ng/mL PMA + 1 μM ionomycin) stood at 12.8 fold. In addition, the “clinical tolerability (in words)” value in data set [5] is “dose limiting toxicities grade 3/4 myalgia, arthralgia, and weakness”. Further, the “intracellular HIV-1 mRNA induction relative to the maximum reactivation elicited by T cell activation” value in data set [3] was “four”. Besides, in data set [6], the “approximated maximally tolerated dose” value is reported as approximately 16 μg/m2/day. Besides, in data set [1], the “virus release into supernatant (in words)” value was “significant virus release” and the “ρ, median fold change” value was found to be 120.
In the case of `Cc1sc2c(c1C)C(c1ccc(Cl)cc1)=N[C@@H](CC(=O)OC(C)(C)C)c1nnc(C)n1-2` [JQ1], the “latency reversal in rCD4s from infected individuals (in words)” value in data set [3] is given as “only minimally active”.
